Consider 1 substance from patent publication US9889184B2 (priority 2008, dated 2018).

The IC50 is the point on the concentration scale where inhibition reaches its midpoint. A lower IC50 goes with greater potency in that assay.

Series [1] has as its system Fusarium oxysporum f. sp. vasinfectum (Fov). The series is described as follows: Growth inhibition of Fov by NaD1 (microtitre OD595). The format is cell-based. As to the method:
Lyophilized NaD1 (500 μg) was dissolved in 400 μL of stock buffer (200 mM Tris-HCl pH 8.0, 2 mM EDTA, 6 M guanidine-HCl, 0.02% [v/v] Tween-20). Reduction buffer (stock buffer with 15 mM dithiothreitol [DTT]) was added (44 μL) followed by a 4.5 h incubation at 40° C. The reaction mixture was cooled to RT before iodoacetic acid (0.5 M in 1 M NaOH, 55 μL) was added and the incubation continued in the dark for 30 min at RT. A Nanosep omega (Registered) spin column (3K molecular weight cut off, PALL Life Sciences) was used to remove salts, DTT and iodoacetic acid and the protein concentration was determined using the BCA protein assay (Pierce). The effect of reduced and alkylated NaD1 (NaD1R&A) on the growth of Fusarium oxysporum (Fov) was measured as described herein.
Antifungal activity against Fusarium oxysporum f. sp. vasinfectum (Fov, Australian isolate VCG01111 isolated from cotton; from Wayne O'Neill, Farming Systems Institute, DPI, Queensland, Australia), Thielaviopsis basicola (gift from David Nehl, NSW DPI, Narrabri, Australia), Verticillium dahliae (from Helen McFadden, CSIRO Plant Industry, Black Mountain, Australia), Leptosphaeria maculans (from Barbara Howlett, University of Melbourne, Victoria, Australia) and Aspergillus nidulans (from Michael Hynes, University of Melbourne) was assessed essentially as described in Broekaert et al, 1990. Spores were isolated from sporulating cultures growing in either half-strength potato dextrose broth (PDB) (Fov and T. basicola), Czapeck-Dox Broth (V. dahliae) (Difco Laboratories) or 10% (v/v) clarified V8 medium (L. maculans and A. nidulans) by filtration through sterile muslin. Spore concentrations were determined using a hemocytometer and adjusted to 5×10^4 spores/mL in the appropriate growth medium. Spore suspensions (80 μL) were added to the wells of sterile 96-well flat-bottomed microtitre plates along with 20 μL of filter-sterilized (0.22 μm syringe filter; Millipore) NaD1, or water to give final protein concentrations of 0-10 μM. The plates were shaken briefly and placed in the dark at 25° C. without shaking until the optical density at 595 nm of the water control reached approximately 0.2 (24-72 h depending on growth rate). Hyphal growth was estimated by measuring the optical density at 595 nm using a microtitre plate reader (SpectraMax Pro M2; Molecular Devices). Each test was performed in quadruplicate.

The subject of the next series is Fov hyphae. The series is described as follows: Membrane permeabilization of Fov hyphae, SYTOX green uptake. The series is classed as cell-based, Fusarium oxysporum f. sp. vasinfectum. As to the method: (§1) Fov hyphae were grown in half-strength PDB (10 mL in a 50 mL tube) from a starting concentration of 5×10^4 spores/mL for 18 h at 25° C. with constant shaking. Samples (1 mL) were then removed and NaD1 (final concentration 2 μM), NaD1R&A (final concentration 2 μM) or an equivalent volume of water was added before incubation for 2 h at RT with gentle agitation. SYTOX® green (Invitrogen-Molecular Probes, Eugene, Oreg.) was added to a final concentration of 0.5 μM and the hyphae were allowed to stand for 10 min. Hyphae (20 μL) were then transferred to microscope slides (SuperFrost (Registered) Plus, Menzel-Glaser) and covered with glass coverslips for visualization of SYTOX® green uptake using an Olympus BX51 fluorescence microscope. SYTOX® green fluorescence was detected using an MWIB filter (excitation wavelength 460-490 nm). Images were captured using a SPOT RT 3CCD digital camera (Diagnostic Instruments) and processed using Adobe Photoshop. SYTOX® green uptake was quantitated by measuring fluorescence of hyphae in microtitre trays using a fluorimeter (SpectraMax M2; Molecular Devices) with excitation and emission wavelengths of 488 nm and 538 nm, respectively.
The effect of temperature on membrane permeabilization of Fov hyphae by NaD1 was monitored as described, except hyphae were pre-equilibrated for 60 min at either 10°, 4° or 0° C. before addition of NaD1 and all subsequent steps were carried out at these temperatures.
The kinetics of membrane permeabilization by NaD1 were studied. Fov hyphae were grown in half-strength PDB from a starting concentration of 5×10^4 spores/mL for 18 h at 25° C. Hyphae (80 μL) were then transferred to 96-well microtitre plates and incubated with SYTOX® green (0.5 μM) for 10 min prior to the addition of 20 μL of peptide solution to give final protein concentrations of 0.2, 0.4, 0.8, 1.6, 3.12, 6.25, 12.5, 25, 50 or 100 μM. Fluorescence readings (Ex; 488 nm, Em; 538 nm) were then taken every 2 min for 3 h using a fluorimeter (SpectraMax M2).

In series [2] the test system is Fusarium oxysporum f. sp. vasinfectum (Fov) hyphae. The series is described as follows: Permeabilisation of Fov hyphae by defensins, SYTOX green (Example 10). Conditions: within 60 mins; followed over 2 h. The format is cell-based. Here is the method:
as §1
The ability of defensins to permeabilise Fusarium oxysporum f. sp. vasinfectum (Fov) hyphae was assessed using a SYTOX green assay as described in the detailed description (NaD1 and membrane permeabilisation).

In series [1] (1 μM NaD1, Fov), “NaD1: plant defensin isolated from floral tissue of Nicotiana alata (SEQ ID NO:12) (RECKTESNTFPGICITKPPCRKACISEKFTDGHCSKILRRCLCTKPC; Nicotiana alata (NaD1))” had a growth retarded of 50%. Besides, the growth inhibited entry in series [1] (5 μM NaD1, Fov) is reported as “more than 80%”. Besides, the “growth inhibition of Fov by NaD1 with ROS scavenger” value in series [1] (10 mM ascorbic acid) was “nor did the presence of 10 mM ascorbic acid affect growth inhibition”. In addition, the half-maximal inhibitory concentration (IC50) in series [1] (Fusarium oxysporum f. sp. vasinfectum) was 1 µM. Besides, the “growth inhibition of Fov” value in series [1] (NaD1 0.1 μM) is “no growth inhibition was observed”; in series [1] (NaD1 concentration used for microscopy (10 μM)), > 90%. Besides, the “NaD1-induced permeabilization (SYTOX green uptake)” value is “reduced even further” in the series on Fov hyphae (0° C., compared with 4° C.); “only a small degree of permeabilization” in the series on Fov hyphae (4° C.); “substantial uptake of SYTOX® green” in the series on Fov hyphae (10° C., less than at 25° C.). Also, in the series on Fov hyphae (0.1, 2 or 10 μM NaD1 or 10 μM NaD1R&A), the “permeabilization of Fov hyphal membranes (SYTOX green)” value is “permeabilized hyphae”. The “NaD1 concentration up to which Vmax increased linearly; above it rate unchanged (saturable)” value in the series with Fov hyphae (Vmax = maximum rate of fluorescence increase) was 6.25 µM. In addition, in the series with Fov hyphae (above it (up to 50 μM) very little difference in kinetics), the “NaD1 concentration up to which the rate of permeabilization increased progressively” value is 3 µM. Also, the “lag time before permeabilization” value in the series with Fov hyphae (all NaD1 concentrations) is reported as “around 20 min”. In addition, the “time after which fluorescence began to plateau” value with Fov hyphae (all NaD1 concentrations) is listed as 90 min. Further, the SYTOX green uptake entry in the series with Fov hyphae (lowest concentration of NaD1 (0.1 μM)) is “a small amount of SYTOX® green uptake occurred”. Further, the “permeabilisation of Fov hyphae (SYTOX green)” value in series [2] was “efficiently permeabilise”.
